Here are results for 26 compounds from patent US20240150356A1, “Pyrimidine amide compounds and use thereof” (ALPHALA CO., LTD., priority 2019, published 2024).

The subject of the first experiment is Hep3B cells (hepatocellular carcinoma cell line). Put plainly: In vitro MTS cell viability assay (NCI-60 methodology), Hep3B. It counts as cell-based. Particulars: Homo sapiens, 48 h, Table 1, MTS, 2 days drug incubation, 50% reduction vs time zero, read-out: Hep3B LC50. As to the method:
The cell viability measurement is based on the NCI-60 screening methodology (Nat. Rev. Cancer 6, 813-823, 2006). Briefly, cells are inoculated into 96-well plates at the optimal plating density. After 24 h, one of the two plates for Hep3B cell line is processed to determine a time zero cell viability (Tz) by MTS assay (Promega). Compounds are added over a 2-fold serial dilution to provide a total five drug concentrations plus DMSO control. Plates are incubated for a further 2 days, then measured cell viability by MTS assay [control growth (C) and test growth in the presence of drug at the five concentration levels (Ti)]. The LC50 is calculated from [(Ti−Tz)/Tz]×100=−50, which is the drug concentration resulting in a 50% reduction at the end of the drug treatment as compared to that at the beginning.
The compounds prepared in Tables 1-10 were tested in three in vitro assays, and the results are shown in Tables 1-10 for Hep3B and Table 11 for SW480 and NCI-H460 shown below. Herein, Hep3B refers to hepatocellular carcinoma cell line, SW480 refers to colon adenocarcinoma cell line, and NCI-H460 refers to human lung cancer cell line.
Shown in following Tables 1 to 10 are the structures and in vitro activities of exemplary compounds of formula (I).
Turning to `CC(C)n1ncc2c(NC(=O)c3ccc([N+](=O)[O-])s3)nc(-c3ccc(C(C)(C)C)cc3)nc21` [Compound 1-23, N-(6-(4-(tert-butyl)phenyl)-1-isopropyl-1H-pyrazolo[3,4-d]pyrimidin-4-yl)-5-nitrothiophene-2-carboxamide], the LC50 worked out at 1570 nM.

Regarding `Cn1ncc2c(NC(=O)c3ccc([N+](=O)[O-])s3)nc(C#Cc3ccc(C(F)(F)F)cc3)nc21` [Compound 1-13, N-(1-methyl-6-((4-(trifluoromethyl)phenyl)ethynyl)-1H-pyrazolo[3,4-d]pyrimidin-4-yl)-5-nitrothiophene-2-carboxamide], the LC50 is 2030 nM.

The experiment is the same for the next values; noted with them: Homo sapiens, 48 h, Table 4, MTS, 2 days drug incubation, 50% reduction vs time zero, read-out: Hep3B LC50.
Take `Cc1csc2c(NC(=O)c3ccc([N+](=O)[O-])s3)nc(-c3ccc(N(C)C)cc3)nc12` [Compound 4-10, N-(2-(4-(dimethylamino)phenyl)-7-methylthieno[3,2-d]pyrimidin-4-yl)-5-nitrothiophene-2-carboxamide]: the LC50 is > 10000 nM.

Staying with this experiment, now noted: Homo sapiens, 48 h, Table 5, MTS, 2 days drug incubation, 50% reduction vs time zero, read-out: Hep3B LC50.
With `C[C@@H]1CN(c2nc(NC(=O)c3ccc([N+](=O)[O-])s3)c3cnn(-c4ccccc4)c3n2)C[C@H](C)O1` [Compound 5-8, N-(6-((2S,6R)-2,6-dimethylmorpholino)-1-phenyl-1H-pyrazolo[3,4-d]pyrimidin-4-yl)-5-nitrothiophene-2-carboxamide], the LC50 turned out to be 1710 nM.

With `O=C(Nc1nc(-c2cc(C(F)(F)F)ccc2F)nc2c1cnn2-c1ccccc1)c1ccc([N+](=O)[O-])s1` [Compound 5-50, N-(6-(2-fluoro-5-(trifluoromethyl)phenyl)-1-phenyl-1H-pyrazolo[3,4-d]pyrimidin-4-yl)-5-nitrothiophene-2-carboxamide], the LC50 turned out to be 350 nM.

On to `O=C(Nc1nc(Oc2ccccc2)nc2c1cnn2-c1ccccc1)c1ccc([N+](=O)[O-])s1` [Compound 5-13, 5-nitro-N-(6-phenoxy-1-phenyl-1H-pyrazolo[3,4-d]pyrimidin-4-yl)thiophene-2-carboxamide], for which the LC50 was > 5000 nM.

As to `O=C(Nc1nc(-c2ccccc2)nc2c1cnn2-c1ccccc1)c1ccc([N+](=O)[O-])s1` [Compound 5-23, N-(1,6-diphenyl-1H-pyrazolo[3,4-d]pyrimidin-4-yl)-5-nitrothiophene-2-carboxamide], the LC50 was 430 nM.

In the case of `O=C(Nc1nc(-c2ccc(Cl)c(Cl)c2)nc2c1cnn2-c1ccccc1)c1ccc([N+](=O)[O-])s1` [Compound 5-48, N-(6-(3,4-dichlorophenyl)-1-phenyl-1H-pyrazolo[3,4,d]pyrimidin-4-yl)-5-nitrothiophene-2-carboxamide], the LC50 came to 410 nM.

The same experiment, now with this note: Homo sapiens, 48 h, Table 6, MTS, 2 days drug incubation, 50% reduction vs time zero, read-out: Hep3B LC50.
Take `O=C(Nc1nc(-c2ccc(C(F)(F)F)cc2F)nc2c1cnn2-c1cccc(Cl)c1)c1ccc([N+](=O)[O-])s1` [Compound 6-41, N-(1-(3-chlorophenyl)-6-(2-fluoro-4-(trifluoromethyl)phenyl)-1H-pyrazolo[3,4-d]pyrimidin-4-yl)-5-nitrothiophene-2-carboxamide]: the LC50 was found to be 320 nM.

Take `COC[C@@H]1CCCN1c1nc(NC(=O)c2ccc([N+](=O)[O-])s2)c2cnn(-c3ccc(F)cc3)c2n1` [Compound 6-103, (S)—N-(1-(4-fluorophenyl)-6-(2-(methoxymethyl)pyrrolidin-1-yl)-1H-pyrazolo[3,4-d]pyrimidin-4-yl)-5-nitrothiophene-2-carboxamide]: the LC50 came to 780 nM.

Turning to `CC(C)(C)c1ccc(-n2ncc3c(NC(=O)c4ccc([N+](=O)[O-])s4)nc(-n4ccnc4)nc32)cc1` [Compound 6-74, N-(1-(4-(tert-butyl)phenyl)-6-(1H-imidazol-1-yl)-1H-pyrazolo[3,4-d]pyrimidin-4-yl)-5-nitrothiophene-2-carboxamide], the LC50 amounted to 330 nM.

On to `CCOCCOc1ccc(-c2nc(NC(=O)c3ccc([N+](=O)[O-])s3)c3cnn(-c4ccc(C)cc4)c3n2)cn1` [Compound 6-13, N-(6-(6-(2-ethoxyethoxy)pyridin-3-yl)-1-(p-tolyl)-1H-pyrazolo[3,4-d]pyrimidin-4-yl)-5-nitrothiophene-2-carboxamide], for which the LC50 came out at 510 nM.

As for `CC(C)(C)c1ccc(-n2ncc3c(NC(=O)c4ccc([N+](=O)[O-])s4)nc(N4CCC[C@H]4C(=O)O)nc32)cc1` [Compound 6-70, (1-(4-(tert-butyl)phenyl)-4-(5-nitrothiophene-2-carboxamido)-1H-pyrazolo[3,4-d]pyrimidin-6-yl)-L-proline], the LC50 is > 1250 nM.

Regarding `CCOCCOCCOc1ccc(-c2nc(NC(=O)c3ccc([N+](=O)[O-])s3)c3cnn(-c4ccc(C)cc4)c3n2)cn1` [Compound 6-14], the LC50 turned out to be 220 nM.

With `COc1ccc(-n2ncc3c(NC(=O)c4ccc([N+](=O)[O-])s4)nc(-c4ccc(F)c(F)c4)nc32)cc1` [Compound 6-23, N-(6-(3,4-difluorophenyl)-1-(4-methoxyphenyl)-1H-pyrazolo[3,4-d]pyrimidin-4-yl)-5-nitrothiophene-2-carboxamide], the LC50 was 170 nM.

`O=C(Nc1nc(-c2ccccc2F)nc2c1cnn2-c1ccc(F)cc1)c1ccc([N+](=O)[O-])s1` [Compound 6-113, N-(6-(2-fluorophenyl)-1-(4-fluorophenyl)-1H-pyrazolo[3,4-d]pyrimidin-4-yl)-5-nitrothiophene-2-carboxamide]: the 50% lethal concentration (LC50) turned out to be 400 nM.

The experiment is the same for the next values; noted with them: Homo sapiens, 48 h, Table 7, MTS, 2 days drug incubation, 50% reduction vs time zero, read-out: Hep3B LC50.
As for `O=C(Nc1nc(N2CCC[C@H]2CO)nc2c1cnn2-c1ccc(Cl)c(Cl)c1)c1ccc([N+](=O)[O-])s1` [Compound 7-11, (S)—N-(1-(3,4-dichlorophenyl)-6-(2-(hydroxymethyl)pyrrolidin-1-yl)-1H-pyrazolo[3,4-d]pyrimidin-4-yl)-5-nitrothiophene-2-carboxamide], the LC50 amounted to 510 nM.

Regarding `O=C(Nc1nc(-c2ccc(F)nc2)nc2c1cnn2-c1ccc(C(F)(F)F)cn1)c1ccc([N+](=O)[O-])s1` [Compound 7-2, N-(6-(6-fluoropyridin-3-yl)-1-(5-(trifluoromethyl)pyridin-2-yl)-1H-pyrazolo[3,4,d]pyrimidin-4-yl)-5-nitrothiophene-2-carboxamide], the LC50 amounted to 150 nM.

With `O=C(Nc1nc(-c2ccc(Cl)nc2)nc2c1cnn2Cc1ccccc1)c1ccc([N+](=O)[O-])s1` [Compound 7-15, N-(1-benzyl-6-(6-chloropyridin-3-yl)-1H-pyrazolo[3,4-d]pyrimidin-4-yl)-5-nitrothiophene-2-carboxamide], the LC50 was 1200 nM.

Staying with this experiment, now noted: Homo sapiens, 48 h, Table 9, MTS, 2 days drug incubation, 50% reduction vs time zero, read-out: Hep3B LC50.
As for `CC(C)(C)OC(=O)N1CCC(n2ncc3c(NC(=O)c4ccc([N+](=O)[O-])s4)nc(-c4ccc(F)nc4)nc32)CC1` [Compound 9-4, tert-butyl 4-(6-(6-fluoropyridin-3-yl)-4-(5-nitrothiophene-2-carboxamido)-1H-pyrazolo[3,4-d]pyrimidin-1-yl)piperidine-1-carboxylate], the LC50 came out at 930 nM.

The same experiment, now with this note: Homo sapiens, 48 h, Table 10, MTS, 2 days drug incubation, 50% reduction vs time zero, read-out: Hep3B LC50.
For `CC1(C)CCC(n2ncc3c(NC(=O)c4ccc([N+](=O)[O-])s4)nc(-c4ccc(Cl)cc4)nc32)CC1` [Compound 10-63, N-(6(4-chlorophenyl)-1-(4,4-dimethylcyclohexyl)-1H-pyrazolo[3,4-d]pyrimidin-4-yl)-5-nitrothiophene-2-carboxamide], the LC50 is 860 nM.

As to `O=C(Nc1nc(-c2ccco2)nc2c1cnn2C1CCCCC1)c1ccc([N+](=O)[O-])s1` [Compound 10-4, N-(1-cyclohexyl-6-(furan-2-yl)-1H-pyrazolo[3,4-d]pyrimidin-4-yl)-5-nitrothiophene-2-carboxamide], the LC50 came out at 1190 nM.

Turning to `O=C(Nc1nc(-c2ccc(C(F)(F)F)cc2)nc2c1cnn2C1CCCCC1)c1ccc([N+](=O)[O-])s1` [Compound 10-24, N-(1-cyclohexyl-6-(4-(trifluoromethyl)phenyl)-1H-pyrazolo[3,4-d]pyrimidin-4-yl)-5-nitrothiophene-2-carboxamide], the LC50 came out at 640 nM.

Regarding `CCOC(=O)c1ccc(-c2nc(NC(=O)c3ccc([N+](=O)[O-])s3)c3cnn(C4CCCCC4)c3n2)cc1` [Compound 10-33, ethyl 4-(1-cyclohexyl-4-(5-nitrothiophene-2-carboxamido)-1H-pyrazolo[3,4-d]pyrimidin-6-yl)benzoate], the LC50 amounted to 540 nM.

With `CC1CC(C)CC(n2ncc3c(NC(=O)c4ccc([N+](=O)[O-])s4)nc(-c4ccc(Cl)cc4F)nc32)C1` (centres unmarked) [Compound 10-72, N-(6-(4-chloro-2-fluorophenyl)-1-(3,5-dimethylcyclohexyl)-1H-pyrazolo[3,4-d]pyrimidin-4-yl)-5-nitrothiophene-2-carboxamide], the LC50 came to 760 nM.

As to `O=C(Nc1nc(N2CCC[C@H]2CO)nc2c1cnn2C1CCCCC1)c1ccc([N+](=O)[O-])s1` [Compound 10-3, (S)—N-(1-cyclohexyl-6-(2-(hydroxymethyl)pyrrolidin-1-yl)-1H-pyrazolo[3,4-d]pyrimidin-4-yl)-5-nitrothiophene-2-carboxamide], the median lethal concentration (LC50) was > 5000 nM.
